According to US11066414B2, “Cot modulators and methods of use thereof” (Gilead Sciences, Inc., priority 2015, dated 2021):
Like-named read-outs stand apart in the source and are kept apart here.

Assays:
TNFα = assay: Cot Monocyte TNFα Cell Based Assay
Human Cot = Human Cot (Homo sapiens (Human), UniProt P41279); assay: High Throughput Cot Biochemical Assay
[1] = Homo sapiens, Monocyte, read-out: EC50 TNF, LPS-stimulated human monocytes, TNFα
[2] = IC50 HTRF, Cot HTRF (TR-FRET) biochemical assay
[3] = Homo sapiens, Monocyte, read-out: EC50 TNF, LPS-stimulated human monocytes, TNFα TR-FRET
[4] = IC50 HTRF, Cot HTRF (TR-FRET KinEASE) biochemical assay, 400 μM ATP

Human Cot, sequence (P41279 30-397): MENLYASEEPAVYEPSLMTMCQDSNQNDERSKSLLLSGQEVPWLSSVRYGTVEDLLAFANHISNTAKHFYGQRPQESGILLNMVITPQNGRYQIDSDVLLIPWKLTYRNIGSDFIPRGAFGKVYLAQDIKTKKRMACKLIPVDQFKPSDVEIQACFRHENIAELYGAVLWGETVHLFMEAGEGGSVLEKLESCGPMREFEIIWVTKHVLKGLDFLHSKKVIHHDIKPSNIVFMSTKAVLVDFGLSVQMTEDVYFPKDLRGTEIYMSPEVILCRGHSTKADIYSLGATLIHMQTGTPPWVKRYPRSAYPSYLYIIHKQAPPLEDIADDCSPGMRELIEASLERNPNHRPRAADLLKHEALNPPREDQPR

Row | SMILES | EC50 (TNFα; [1]) | IC50 (Human Cot; [2]) | other results
1 | COC[C@H](C)n1cc([C@@H](Nc2cc(Cl)c3ncc(C#N)c(NCC(C)(C)C)c3c2)c2cccc3c(=O)n(C)ccc23)nn1 [Example 802, 8-chloro-6-(((S)-(1-((S)-1-methoxypropan-2-yl)-1H-1,2,3-triazol-4-yl)(2-methyl-1-oxo-1,2-dihydroisoquinolin-5-yl)methyl)amino)-4-(neopentylamino)quinoline-3-carbonitrile] | – | – | EC50 (TNFα; [3]): 36 nM; IC50 (Human Cot; [4]): 4 nM
2 | N#CCn1cc([C@@H](Nc2cc(Cl)c3ncc(C#N)c(Nc4ccc(F)c(Cl)c4)c3c2)c2cscn2)nn1 [Example 364, (S)-8-chloro-4-((3-chloro-4-fluorophenyl)amino)-6-(((1-(cyanomethyl)-1H-1,2,3-triazol-4-yl)(thiazol-4-yl)methyl)amino)-quinoline-3-carbonitrile] | 241 nM | 7 nM | –
3 | CC1(n2cc([C@@H](Nc3cc(Cl)c4ncc(C#N)c(NCC(C)(C)C(F)(F)F)c4c3)c3ccc(F)c4ncccc34)nn2)CC1 [Example 919, (S)-8-chloro-6-(((8-fluoroquinolin-5-yl)(1-(1-methylcyclopropyl)-1H-1,2,3-triazol-4-yl)methyl)amino)-4-((3,3,3-trifluoro-2,2-dimethylpropyl)amino)quinoline-3-carbonitrile] | – | – | EC50 (TNFα; [3]): 49 nM; IC50 (Human Cot; [4]): 2 nM
4 | CC(C)(C)CNc1c(C#N)cnc2c(Cl)cc(N[C@H](c3cn(C4(C(F)(F)F)CC4)nn3)c3cccc4ncsc34)cc12 [Example 417, (S)-6-((benzo[d]thiazol-7-yl(1-(1-(trifluoromethyl)cyclopropyl)-1H-1,2,3-triazol-4-yl)methyl)amino)-8-chloro-4-(neopentylamino)quinoline-3-carbonitrile] | 218 nM | 9 nM | –
5 | CC(C)(C)CNc1c(C#N)cnc2c(C#N)cc(N[C@H](c3cn(C4CCN(C(C)(C)C)CC4)nn3)c3cccc4ncsc34)cc12 [Example 420, (S)-6-((benzo[d]thiazol-7-yl(1-(1-(tert-butyl)piperidin-4-yl)-1H-1,2,3-triazol-4-yl)methyl)amino)-4-(neopentyl-amino)quinoline-3,8-dicarbonitrile] | 25 nM | 2 nM | –
6 | CC(C)(C)CNc1c(C#N)cnc2c(Cl)cc(N[C@H](c3cn(C4(C(F)(F)F)CC4)nn3)c3ccc(Cl)c4ncccc34)cc12 [Example 921, (S)-8-chloro-6-(((8-chloroquinolin-5-yl)(1-(1-(trifluoromethyl)cyclopropyl)-1H-1,2,3-triazol-4-yl)methyl)amino)-4-(neopentylamino)quinoline-3-carbonitrile] | – | – | EC50 (TNFα; [3]): 187 nM; IC50 (Human Cot; [4]): 17 nM
7 | CC(C)(C)CNc1c(C#N)cnc2c(Cl)cc(N[C@H](c3cn(C4(C(N)=O)CCC4)nn3)c3cccc4ncsc34)cc12 [Example 463, (S)-1-(4-(benzo[d]thiazol-7-yl((8-chloro-3-cyano-4-(neopentylamino)quinolin-6-yl)amino)methyl)-1H-1,2,3-triazol-1-yl)cyclobutane-1-carboxamide] | 63 nM | 2 nM | –
8 | [2H]C(Nc1cc(Cl)c2ncc(C#N)c(NCC(C)(C)C)c2c1)(c1cn(C2CC2)nn1)c1cc(F)cnc1C (stereo not shown) [Example 114, 8-chloro-6-(((1-cyclopropyl-1H-1,2,3-triazol-4-yl)(5-fluoro-2-methylpyridin-3-yl)methyl-d)amino)-4-(neopentylamino)quinoline-3-carbonitrile] | 233 nM | 10 nM | –
9 | CC(C)(C)N1CCC(n2cc([C@@H](Nc3cc(Cl)c4ncc(C#N)c(Nc5ccc(F)c(Cl)c5)c4c3)c3csc4ccccc34)nn2)CC1 [Example 351, (S)-6-((benzo[b]thiophen-3-yl(1-(1-(tert-butyl)piperidin-4-yl)-1H-1,2,3-triazol-4-yl)methyl)amino)-8-chloro-4-((3-chloro-4-fluorophenyl)amino)-quinoline-3-carbonitrile] | 744 nM | 10 nM | –
10 | Cn1cnc2cccc([C@H](Nc3cc(C#N)c4ncc(C#N)c(NCC(C)(C)C)c4c3)c3cn(C4(C(F)F)CC4)nn3)c21 [Example 523] | – | – | EC50 (TNFα; read-out: EC50 TNF, LPS-stimulated human monocytes, TNFα): 63 nM; IC50 (Human Cot; read-out: IC50 HTRF, Cot HTRF (TR-FRET) biochemical assay): 2 nM
11 | CC(C)(C)CNc1c(C#N)cnc2c(C#N)cc(N[C@H](c3cn(C4(c5ccncc5)CC4)nn3)c3cccc4ncsc34)cc12 [Example 464, (S)-6-((benzo[d]thiazol-7-yl(1-(1-(pyridin-4-yl)cyclopropyl)-1H-1,2,3-triazol-4-yl)methyl)amino)-4-(neopentylamino)-quinoline-3,8-dicarbonitrile] | 16 nM | 1 nM | –
12 | CC(C)n1cc([C@@H](Nc2cc(Cl)c3ncc(C#N)c(Nc4ccc(F)c(Cl)c4)c3c2)c2ccc3c(c2)CNCC3)nn1 [Example 50, (S)-8-chloro-4-((3-chloro-4-fluorophenyl)amino)-6-(((1-isopropyl-1H-1,2,3-triazol-4-yl)(1,2,3,4-tetrahydroisoquinolin-7-yl)methyl)amino)quinoline-3-carbonitrile] | 3530 nM | 70 nM | –
13 | [2H][C@](Nc1cc(Cl)c2ncc(C#N)c(Nc3cnc(F)c(F)c3)c2c1)(c1cncc(C#N)c1)c1cn(C2CC2)nn1 [Example 143, (S)-8-chloro-6-(((5-cyanopyridin-3-yl)(1-cyclopropyl-1H-1,2,3-triazol-4-yl)methyl-d)amino)-4-((5,6-difluoropyridin-3-yl)amino)quinoline-3-carbonitrile] | 898 nM | 16 nM | –
14 | Cc1ncsc1[C@H](Nc1cc(C#N)c2ncc(C#N)c(NCC(C)(C)C)c2c1)c1cn(C2(C(F)(F)F)CC2)nn1 [Example 904, (R)-6-(((4-methylthiazol-5-yl)(1-(1-(trifluoromethyl)cyclopropyl)-1H-1,2,3-triazol-4-yl)methyl)amino)-4-(neopentylamino)quinoline-3,8-dicarbonitrile] | – | – | EC50 (TNFα; [3]): 78 nM; IC50 (Human Cot; [4]): 5 nM
15 | Cc1ncccc1[C@H](Nc1cc(Cl)c2ncc(C#N)c(Nc3cccc(Cl)c3)c2c1)c1cn(C2CCN(C(C)(C)C)CC2)nn1 [Example 226, (S)-6-(((1-(1-(tert-butyl)piperidin-4-yl)-1H-1,2,3-triazol-4-yl)(2-methylpyridin-3-yl)methyl)amino)-8-chloro-4-((3-chlorophenyl)amino)quinoline-3-carbonitrile] | 880 nM | 8 nM | –
16 | CC(C)(O)[C@@H](Nc1c(C#N)cnc2c(Cl)cc(N[C@@H](c3cccnc3)c3c[nH]nn3)cc12)c1ccccc1 [Example 186, 8-chloro-4-(((S)-2-hydroxy-2-methyl-1-phenylpropyl)amino)-6-(((S)-pyridin-3-yl(1H-1,2,3-triazol-4-yl)methyl)amino)quinoline-3-carbonitrile] | 6620 nM | 118 nM | –
17 | N#Cc1cnc2c(Cl)cc(N[C@H](c3c[nH]nn3)c3csc4c3CCN(C3COC3)C4)cc2c1Nc1ccc(Cl)c(Cl)c1F [Example 222, (S)-8-chloro-4-((3,4-dichloro-2-fluorophenyl)amino)-6-(((6-(oxetan-3-yl)-4,5,6,7-tetrahydrothieno[2,3-c]pyridin-3-yl)(1H-1,2,3-triazol-4-yl)methyl)amino)quinoline-3-carbonitrile] | 739 nM | 19 nM | –

Now from value to molecule, other results behind:

Row | EC50 (TNFα; [1]) | IC50 (Human Cot; [2]) | SMILES | other results
18 | 35 nM | 2 nM | CCn1ccc2c([C@H](Nc3cc(Cl)c4ncc(C#N)c(NCC(C)(C)C)c4c3)c3cn(C4(C)CC4)nn3)cccc2c1=O [Example 773, (S)-8-chloro-6-(((2-ethyl-1-oxo-1,2-dihydroisoquinolin-5-yl)(1-(1-methylcyclopropyl)-1H-1,2,3-triazol-4-yl)methyl)amino)-4-(neopentylamino)quinoline-3-carbonitrile] | –
19 | 40 nM | 3 nM | Cc1nc(F)ccc1[C@H](Nc1cc(C#N)c2ncc(C#N)c(NCC(C)(C)C)c2c1)c1cn(C2(C#N)CCC2)nn1 [Example 491, (S)-6-(((1-(1-cyanocyclobutyl)-1H-1,2,3-triazol-4-yl)(6-fluoro-2-methylpyridin-3-yl)methyl)amino)-4-(neopentylamino)-quinoline-3,8-dicarbonitrile] | –
20 | 403 nM | 43 nM | Cc1nc(F)ccc1[C@H](Nc1cc(Cl)c2ncc(C#N)c(NCC(C)(C)S(C)(=O)=O)c2c1)c1cn(C2(C(F)(F)F)CC2)nn1 [Example 722, (S)-8-chloro-6-(((6-fluoro-2-methylpyridin-3-yl)(1-(1-(trifluoromethyl)-cyclopropyl)-1H-1,2,3-triazol-4-yl)methyl)amino) -4-((2-methyl-2-(methylsulfonyl)propyl)amino)-quinoline-3-carbonitrile] | –
21 | 113 nM | 5 nM | CCc1ncccc1[C@H](Nc1cc(Cl)c2ncc(C#N)c(NCC(C)(C)C)c2c1)c1cn(C2(C(F)(F)F)CC2)nn1 [Example 600, (S)-8-chloro-6-(((2-ethylpyridin-3-yl)(1-(1-(trifluoromethyl)cyclopropyl)-1H-1,2,3-triazol-4-yl)methyl)amino)-4-(neopentylamino)quinoline-3-carbonitrile] | –
22 | 467 nM | 6 nM | Cn1ncc2c([C@H](Nc3cc(Cl)c4ncc(C#N)c(NCC(C)(C)C)c4c3)c3cn(C4(C(F)F)CC4)nn3)cccc21 [Example 496, (S)-8-chloro-6-(((1-(1-(difluoromethyl)-cyclopropyl)-1H-1,2,3-triazol-4-yl)(1-methyl-1H-indazol-4-yl)methyl)amino)-4-(neopentylamino)quinoline-3-carbonitrile] | –
23 | 720 nM | 69 nM | Cc1nc(F)ccc1[C@H](Nc1cc(Cl)c2ncc(C#N)c(NCC3(C(F)F)CC3)c2c1)c1cn(C2(C(F)(F)F)CC2)nn1 [Example 636, (S)-8-chloro-4-(((1-(difluoromethyl)cyclopropyl)-methyl)amino)-6-(((6-fluoro-2-methylpyridin-3-yl)(1-(1-(trifluoromethyl)cyclopropyl)-1H-1,2,3-triazol-4-yl)methyl)amino)quinoline-3-carbonitrile] | –
